Test results taken from US20190177284A1, “TETRAZOLYL-CONTAINING CYCLOPROPANECARBOXAMIDES” (Bayer Pharma Aktiengesellschaft, priority 2017, published 2019).
pIC50: −log10 of the molar value.

Target: T1, human Bradykinin B1 receptor (Homo sapiens, UniProt P46663)
T1 construct: host or cells: CHO-K1
T1 sequence (P46663 1-353): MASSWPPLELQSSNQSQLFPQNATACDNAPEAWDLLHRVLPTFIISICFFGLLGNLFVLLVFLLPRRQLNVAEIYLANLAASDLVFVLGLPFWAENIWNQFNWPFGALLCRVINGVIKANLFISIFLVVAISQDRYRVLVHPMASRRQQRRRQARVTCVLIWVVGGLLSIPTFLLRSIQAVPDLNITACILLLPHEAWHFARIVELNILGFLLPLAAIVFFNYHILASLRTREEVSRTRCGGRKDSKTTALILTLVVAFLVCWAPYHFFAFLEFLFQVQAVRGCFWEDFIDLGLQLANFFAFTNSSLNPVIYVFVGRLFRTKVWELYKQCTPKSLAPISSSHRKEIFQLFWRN
Test: Calcium flux Assay (FLIPR) with cells expressing human Bradykinin B1 receptor (hB1)
Format: cell-based
Conditions: absence of 0.1% BSA in assay buffer; CHO-K1 cell line expressing human B1 receptor; agonist Lys-(Des-Arg)-Bradykinin; read-out: hB1 free IC50
Procedure: The potency to inhibit the Bradykinin B1 receptor was determined for the compound examples of this invention in a cell-based fluorescent calcium-mobilisation assay. The assay measures the ability of compound examples to inhibit Bradykinin B1 receptor agonist-induced increase of intracellular free Ca^2+ in the cell line expressing Bradykinin B1 receptor. Specifically, calcium indicator-loaded cells are pre-incubated in the absence or presence of different concentrations of compound examples followed by the stimulation with a selective Bradykinin B1 receptor agonist peptide. The change of the intracellular Ca^2+ concentration is monitored with a fluorescent plate reader FLIPR^TETRA®
Calcium flux Assays (FLIPR) with cells expressing human Bradykinin B1 receptor (hB1) Calcium flux Assay (FLIPR) with recombinant cells for Bradykinin B1 receptor antagonist, either in the presence (hB1 IC50) or absence (hB1 free IC50) of 0.1% Bovine Serum Albumin (BSA) in assay buffer.
CHO—K1 cell line expressing human B1 receptor was purchased from Euroscreen (Gosselies, Belgium, with reference name hB1-D1). The cells were grown in Nutrient Mixture Ham's F12 (Sigma) containing 10% Foetal bovine serum (Sigma) and 400 μg/mL G418 (Sigma), 5 μg/mL puromycin (Sigma).
For the calcium flux assay, 80% confluent cells were detached from the culture vessels with Versene (Gibco), and seeded into 384-well plates (Cell binding Surface; Corning, N.Y.; #3683) at a density of 15,000 cells per well. Cells were seeded in a volume of 50 μL in medium without antibiotics and incubated overnight in a humidified atmosphere with 5% CO2 at 37° C. […] The calcium indicator loaded cells were incubated at 37° C. for 2 hrs. Extracellular dye was then removed and each well was filled with 45 μL of assay buffer. Cell plates were kept in dark until used. Example compounds were assayed at 8 concentrations in triplicate. Serial 10-fold dilutions in 100% DMSO were made at a 100-times higher concentration than the final concentration, and then diluted 1:10 in assay buffer. 5 μL of each diluted compound was added to the well of cell plates (yielding final concentration with 1% DMSO), and incubated for 30 min at 28° C. before the addition of B1 receptor agonist on the FLIPR instrument.
Agonist plates contained the agonist Lys-(Des-Arg)-Bradykinin (Bachem, Brackley) at 3.5×EC90 in assay buffer with 1% DMSO. The addition of agonist 20 μl per well to the assay plate was carried out on the FLIPR instrument while continuously monitoring Ca^2+-dependent fluorescence at 538 nm. A peptide antagonist Lys-(Des-Arg-Leu)-Bradykinin (Bachem, Brackley) at 20 μM was used to determine the full inhibition as control.
Peak fluorescence was used to determine the response to agonist obtained at each concentration of example compound by the following equation:
% Response=100*(RFU(example compound)−RFU(control))/(RFU(DMSO)−RFU(control)) • RFU means relative fluorescence units. • Control means full inhibition by the peptide antagonist Lys-(Des-Arg-Leu)-Bradykinin at 20
The response values were plotted against the logarithm of the example compound concentrations. The example compounds were tested in triplicates per plate and mean values were plotted in Excel XLfit to determine IC50 values, percentage of maximal inhibition and the Hill slopes.
IC50 values of example compounds in Calcium flux Assay (FLIPR) as shown in table 1 were determined according to the protocol described above in the absence of 0.1% BSA in assay buffer.

Row | SMILES | pIC50
1 | CC(C)CN(C)C(=O)c1ccc(NC(=O)C2(c3ccc(C(F)(F)F)cc3F)CC2)cc1-c1nnn[nH]1 [Example 55, 4-[({1-[2-Fluoro-4-(trifluoromethyl)phenyl]cyclopropyl}carbonyl)amino]-N-isobutyl-N-methyl-2-(1H-tetrazol-5-yl)benzamide] | 5.75
2 | O=C(NC1CCOCC1)c1ccc(NC(=O)C2(c3ccc(C(F)(F)F)cc3F)CC2)cc1-c1nnn[nH]1 [Example 45, 4-[({1-[2-Fluoro-4-(trifluoromethyl)phenyl]cyclopropyl}carbonyl)amino]-N-(tetrahydro-2H-pyran-4-yl)-2-(1H-tetrazol-5-yl)benzamide] | 6.88
3 | CC[C@@H](C)NC(=O)c1ccc(NC(=O)C2(c3ccc(C(F)(F)F)cc3F)CC2)cc1-c1nnn[nH]1 [Example 37, N-[(2R)-butan-2-yl]-4-[({1-[2-fluoro-4-(trifluoromethyl)phenyl]cyclopropyl}carbonyl)amino]-2-(1H-tetrazol-5-yl)benzamide] | 6.92
4 | CCOC(=O)c1c(C)cc(NC(=O)C2(c3ccc(C(F)(F)F)cc3F)CC2)cc1-c1nnn[nH]1 [Example 60, Ethyl 4-[({1-[2-fluoro-4-(trifluoromethyl)phenyl]cyclopropyl}carbonyl)amino]-2-methyl-6-(1H-tetrazol-5-yl)benzoate] | 7.59
5 | O=C(NCC1CCOCC1)c1ccc(NC(=O)C2(c3ccc(C(F)(F)F)cc3F)CC2)cc1-c1nnn[nH]1 [Example 48, 4-[({1-[2-Fluoro-4-(trifluoromethyl)phenyl]cyclopropyl}carbonyl)amino]-N-(tetrahydro-2H-pyran-4-ylmethyl)-2-(1H-tetrazol-5-yl)benzamide] | 7.22
6 | COC[C@@H](C)NC(=O)c1ccc(NC(=O)C2(c3ccc(C(F)(F)F)cc3F)CC2)cc1-c1nnn[nH]1 [Example 50, 4-[({1-[2-Fluoro-4-(trifluoromethyl)phenyl]cyclopropyl}carbonyl)amino]-N-[(2R)-1-methoxypropan-2-yl]-2-(1H-tetrazol-5-yl)benzamide] | 7.05
7 | COC1CCN(C(=O)c2ccc(NC(=O)C3(c4ccc(C(F)(F)F)cc4F)CC3)cc2-c2nnn[nH]2)CC1 [Example 36, 1-[2-Fluoro-4-(trifluoromethyl)phenyl]-N-{4-[(4-methoxypiperidin-1-yl)carbonyl]-3-(1H-tetrazol-5-yl)phenyl}cyclopropanecarboxamide] | 6.28
8 | COC1CCCN(C(=O)c2ccc(NC(=O)C3(c4ccc(C(F)(F)F)cc4F)CC3)cc2-c2nnn[nH]2)C1 (racemic) [Example 35, 1-[2-Fluoro-4-(trifluoromethyl)phenyl]-N-{4-[(3-methoxypiperidin-1-yl)carbonyl]-3-(1H-tetrazol-5-yl)phenyl}cyclopropanecarboxamide] | 6.47
9 | COC[C@H](C)NC(=O)c1ccc(NC(=O)C2(c3ccc(C(F)(F)F)cc3F)CC2)cc1-c1nnn[nH]1 [Example 51, 4-[({1-[2-Fluoro-4-(trifluoromethyl)phenyl]cyclopropyl}carbonyl)amino]-N-[(2S)-1-methoxypropan-2-yl]-2-(1H-tetrazol-5-yl)benzamide] | 6.39
10 | CC1(OC(=O)c2ccc(NC(=O)C3(c4ccc(C(F)(F)F)cc4F)CC3)cc2-c2nnn[nH]2)CCCC1 [Example 14, 1-Methylcyclopentyl 4-[({1-[2-fluoro-4-(trifluoromethyl)phenyl]cyclopropyl}-carbonyl)amino]-2-(1H-tetrazol-5-yl)benzoate] | 6.00
11 | Cc1cc(NC(=O)C2(c3ccc(C(F)(F)F)cc3F)CC2)cc(-c2nnn[nH]2)c1C(=O)OC1CCCC1 [Example 64, Cyclopentyl 4-[({1-[2-fluoro-4-(trifluoromethyl)phenyl]cyclopropyl}carbonyl)amino]-2-methyl-6-(1H-tetrazol-5-yl)benzoate] | 7.60
12 | Cc1ccc(NC(=O)c2ccc(NC(=O)C3(c4ccc(C(F)(F)F)cc4F)CC3)cc2-c2nnn[nH]2)nc1 [Example 56, 4-[({1-[2-Fluoro-4-(trifluoromethyl)phenyl]cyclopropyl}carbonyl)amino]-N-(5-methylpyridin-2-yl)-2-(1H-tetrazol-5-yl)benzamide] | 7.30
13 | CN(C(=O)c1ccc(NC(=O)C2(c3ccc(C(F)(F)F)cc3F)CC2)cc1-c1nnn[nH]1)C1CCCCC1 [Example 43, N-cyclohexyl-4-[({1-[2-fluoro-4-(trifluoromethyl)phenyl]cyclopropyl}carbonyl)amino]-N-methyl-2-(1H-tetrazol-5-yl)benzamide] | 7.30
14 | Cc1cccc([C@@H]2C[C@H]2C(=O)Nc2ccc(C(=O)OC3CCCC3)c(-c3nnn[nH]3)c2)c1 (racemic) [Example 13, Cyclopentyl-4-({[2-(3-methylphenyl)cyclopropyl]carbonyl}amino)-2-(1H-tetrazol-5-yl)benzoate] | 7.33

Molecules with a higher pIC50, results first:

Row | pIC50 | SMILES
15 | 7.68 | O=C(OC1CCCC1)c1ccc(NC(=O)C2(c3cccc(Cl)c3)CC2)cc1-c1nnn[nH]1 [Example 2, Cyclopentyl 4-({[1-(3-chlorophenyl)cyclopropyl]carbonyl}amino)-2-(1H-tetrazol-5-yl)benzoate]
16 | 7.68 | CCC(C)OC(=O)c1ccc(NC(=O)C2(c3ccc(F)c(F)c3)CC2)cc1-c1nnn[nH]1 (racemic) [Example 8, sec-Butyl 4-({[1-(3,4-difluorophenyl)cyclopropyl]carbonyl}amino)-2-(1H-tetrazol-5-yl)benzoate]
17 | 7.77 | COCCOC(=O)c1ccc(NC(=O)C2(c3ccc(C(F)(F)F)cc3F)CC2)cc1-c1nnn[nH]1 [Example 17, 2-Methoxyethyl 4-[({1-[2-fluoro-4-(trifluoromethyl)phenyl]cyclopropyl}-carbonyl)amino]-2-(1H-tetrazol-5-yl)benzoate]
18 | 8.05 | COC(C)COC(=O)c1ccc(NC(=O)C2(c3ccc(C(F)(F)F)cc3F)CC2)cc1-c1nnn[nH]1 (racemic) [Example 31, 2-Methoxypropyl 4-[({1-[2-fluoro-4-(trifluoromethyl)phenyl]cyclopropyl}carbonyl)amino]-2-(1H-tetrazol-5-yl)benzoate]
19 | 8.30 | O=C(OC1CCCC1)c1ccc(NC(=O)C2(c3ccc(OC(F)(F)F)cc3F)CC2)cc1-c1nnn[nH]1 [Example 7, Cyclopentyl 4-[({1-[2-fluoro-4-(trifluoromethoxy)phenyl]cyclopropyl}carbonyl)amino]-2-(1H-tetrazol-5-yl)benzoate]
20 | 8.30 | CCOC(=O)c1c(F)cc(NC(=O)C2(c3ccc(C(F)(F)F)cc3F)CC2)cc1-c1nnn[nH]1 [Example 59, Ethyl 2-fluoro-4-[({1-[2-fluoro-4-(trifluoromethyl)phenyl]cyclopropyl}-carbonyl)amino]-6-(1H-tetrazol-5-yl)benzoate]
21 | 8.40 | CCC(C)OC(=O)c1ccc(NC(=O)C2(c3ccc(C(F)(F)F)cc3F)CC2)cc1-c1nnn[nH]1 (racemic) [Example 10, sec-Butyl 4-[({1-[2-fluoro-4-(trifluoromethyl)phenyl]cyclopropyl}carbonyl)amino]-2-(1H-tetrazol-5-yl)benzoate]
22 | 8.70 | CC[C@@H](C)OC(=O)c1ccc(NC(=O)C2(c3ccc(C(F)(F)F)cc3F)CC2)cc1-c1nnn[nH]1 [Example 24, (2R)-Butan-2-yl 4-[({1-[2-fluoro-4-(trifluoromethyl)phenyl]cycloproyl}carbonyl)amino]-2-(1H-tetrazol-5-yl)benzoate]
